For series [1], the system named is Cushing's disease patients. As to conditions: Colao et al. N Engl J Med 2012; 366:32-42; cited from earlier work.
Another series relates to Wistar Hannover rats. The class given is in vivo. As to conditions: for Serum corticosterone, Change from Control (%): Female rats; for Effects on serum corticosterone (PD marker), in words: compared to control. From the text:
Another group of rats (10/sex) received daily doses of Ultrapure water, by oral gavage, and the Acetate buffered solution pH 4.5 for injection USP, by subcutaneous injection, and served as controls.
Study activities included clinical examinations, involving twice daily exams for mortality and signs of ill health or reaction to treatment, daily pre-dose and 1-hour post dose cage-side observations, weekly detailed examination, body weights and food consumption, two ophthalmic examinations (pretreatment and week 13), clinical pathology (hematology, coagulation and clinical biochemistry, urinalysis) and immunology at the end of dosing (Adrenocorticotropic hormone, Corticosterone, Growth hormone, Insulin-like growth factor and urinalysis for Corticosterone). […] Post mortem evaluation included macroscopic observations, organ weight assessments (absolute and relative to body) and microscopic examinations.

In series [2] the test system is patients with Cushing's disease. On the procedure: Dose escalation was planned every 2 weeks to 5, 10, 20 and 50 mg bid until UFC normalized, in which case the dose was maintained until day 70, when treatment stopped. Dose reduction for tolerability was permitted. UFC was assessed on the penultimate day of each 2-week period. Patients were monitored until day 84. The primary endpoint was UFC≦ULN or a ≧50% decrease from baseline at day 70 using the mean of 3 UFC samples collected during the week before day 70.

Series [3] is described as follows: Solubility and stability in water at 0.1% target concentration, 50° C. The class given is physicochemical. The settings on record: for stability / behaviour in water: 2 days at 50° C.
Series [4] can be described thus: Solubility profile, excess solids equilibrated in each solvent. The class given is physicochemical. Here is the method: Excess solids were equilibrated in each solvent for over 24 hours at 25° C.±0.1. Concentration in supernatant was measured by gravimetry for organic solvents and by HPLC from aqueous solvents and propylene glycol.
A short description of series [5]: Hygroscopicity, sorption/desorption isotherms (VTI 100 humidity microbalance). It is filed as physicochemical. As to conditions: 25° C. Here is the method:
Sorption/desorption isotherms were measured using the VTI 100 humidity microbalance (VTI Corporation, Hialeah, Fla., USA). Measurements were carried out at 25° C. Samples were dried under N2 flow at 25° C.

[6] abbreviates: Female rats (n = 10), dose —/0.3 (SOM230 0.3 mg/kg/day alone).
Setting [7] is: Male rats (n = 10), dose —/0.3 (SOM230 0.3 mg/kg/day alone).
The mark [8] stands for this setting: of the 9 patients who completed the active treatment phase.
The mark [9] stands for this setting: patients with Cushing's disease.
Setting [10] is: Female rats (n = 10), dose 20/— (COMPOUND A 20 mg/kg/day alone).
The mark [11] stands for this setting: Male rats (n = 10), dose 20/— (COMPOUND A 20 mg/kg/day alone).

Where two headings read alike, the source gives them in different places. Numbered stars: 1 amine (or outer) side, 2 acyl side, 3 side chain; on linkers, the order of the positions; unused ones are H or OH. Square brackets hold non-standard residues; d marks the D form. Side chains are listed from the residue outwards. Peptide text beside a SMILES is read from it. * marks the point of attachment. Ethylenediamine = C(CN[*:2])N[*:1]; Hyp = O=C(O)[C@@H]1C[C@@H](O)CN1; Phg = N[C@H](C(=O)O)c1ccccc1; CO = O=C([*:1])[*:2]; Bn = c1ccc(C*)cc1

On to `NCCCC[C@@H]1NC(=O)[C@@H](Cc2c[nH]c3ccccc23)NC(=O)[C@H](c2ccccc2)NC(=O)[C@@H]2C[C@@H](OC(=O)NCCN)CN2C(=O)[C@H](Cc2ccccc2)NC(=O)[C@H](Cc2ccc(OCc3ccccc3)cc2)NC1=O` [SOM230, cyclo[{4-(NH2—C2H4—NH—CO—O-)Pro}-Phg-DTrp-Lys-Tyr(4-Bzl)-Phe], reference compound] (cyclo([Hyp]([CO-Ethylenediamine])[Phg][dW]KY(Bn)F)), for which the “cortisol levels in Cushing's disease patients” value in series [1] is recorded as “significant decrease of cortisol levels”. Further, in the series with Wistar Hannover rats (setting [6]), the “Absolute adrenal weights” value was determined as 0.04585 g, the “Mean serum corticosterone level” value turned out to be 190.56 and the “Relative adrenal weight (% of body weight)” value was 0.02432 % of body weight. The “Serum corticosterone, Change from Control (%)” value with Wistar Hannover rats (dose —/0.3 (SOM230 0.3 mg/kg/day alone)) is −27%. Also, in the series on Wistar Hannover rats (setting [7]), the “Absolute adrenal weights” value was 0.03615 g, the “Mean serum corticosterone level” value worked out at 233.68 and the “Relative adrenal weight (% of body weight)” value is 0.01326 % of body weight. For the same molecule, in the series on Wistar Hannover rats (rats), the “Effects on serum corticosterone (PD marker), in words” value is “decreases in serum corticosterone in females only”.
Take `N#Cc1ccc([C@H]2CCc3cncn32)c(F)c1` [Compound A, (R)-4-(6,7-Dihydro-5H-pyrrolo[1,2-c]imidazol-5-yl)-3-fluoro-benzonitrile]: in series [2] (10-week trial), the “ACTH level doubled, share of patients” value was “half of the patients” and the “effect on urinary free cortisol (UFC)” value is “successfully reduced urinary free cortisol (UFC) in all patients”. In addition, in series [2] (12 patients enrolled), the “adverse event fatigue (patients)” value is given as 7/12, the “adverse event headache (patients)” value is 3/12, the “adverse event nausea (patients)” value was 4/12 and the “patients with ACTH levels >2× baseline” value was “Five”. In addition, in series [2] (12 patients enrolled), the “patients with study drug-related hypokalemia (K+<3.5 mmol/L)” value is given as “Four”. Besides, in series [2] (day 70), the “mean SBP decrease from baseline” value was determined as 13.1 mmHg. Moreover, the “patients with UFC >ULN after treatment discontinuation” value in series [2] (measurements at day 84) was found to be 6 patients. Besides, in series [2] (setting [8]), the “patients achieving primary endpoint (UFC≦ULN or ≧50% decrease from baseline at day 70)” value came to 9 patients and the “patients with normal UFC levels on day 70” value came out at 8 patients. For the same molecule, the “patients with normal UFC levels on at least one assessment during the study” value in series [2] (oral, 2-50 mg bid dose escalation) is given as 11 of 11. In series [2] (setting [9]), the efficacy conclusion result is on record as “demonstrated efficacy” and the “tolerability / safety profile” value is listed as “satisfactory safety profile”. Besides, in series [2] (patients with Cushing's disease, listed as COMPOUND A), the “tolerability / safety profile” value was “generally well tolerated”. Besides, in series [3], the “solubility in water at the 0.1% target concentration” value is “largely insoluble” and the “stability / behaviour in water” value is “converted from a free flowing solid into an oily material”. In the series with Wistar Hannover rats (setting [10]), the “Absolute adrenal weights” value came to 0.07002 g and the “Mean serum corticosterone level” value is reported as 166.76. Moreover, in the series with Wistar Hannover rats (dose 20/— (COMPOUND A 20 mg/kg/day alone)), the “Serum corticosterone, Change from Control (%)” value is recorded as −36%. In the series on Wistar Hannover rats (setting [11]), the “Absolute adrenal weights” value came to 0.04969 g and the “Mean serum corticosterone level” value worked out at 221.83. The adrenalcortical hypertrophy result in the series with Wistar Hannover rats (female rats) is “produced adrenalcortical hypertrophy”. Also, the “Effects on serum corticosterone (PD marker), in words” value in the series with Wistar Hannover rats (rats) is “decreases in serum corticosterone in females only”. The “Effects on adrenal gland organ weights, in words” value in the series with Wistar Hannover rats (rats, more pronounced in females) was “increased adrenal gland organ weights”. Besides, the Solubility in series [4] (Ethanol, over 24 hours at 25° C.) is >50 mg/mL. In addition, in series [4] (Ethyl Acetate, over 24 hours at 25° C.), the Solubility is >50 mg/mL. Moreover, the Solubility in series [4] (organic solvent or mixture, thermodynamic from solid, Acetone, over 24 hours at 25° C., read-out: Solubility) is > 50 mg/mL. Further, the Solubility in series [4] (simulated gastric fluid, thermodynamic from solid, pH 1, over 24 hours at 25° C., read-out: Solubility) was > 50 mg/mL.
On to `N#Cc1ccc([C@H]2CCc3cncn32)c(F)c1.O=P(O)(O)O` [Phosphate salt, Phosphate Salt of 4-(R)-6,7-dihydro-5H-pyrrolo[1,2-c]imidazol-5-yl-3-fluoro-benzonitrile (Form A)], for which the “hygroscopicity, water uptake” value in series [5] (5% RH) stood at 0%; in series [5] (75% relative humidity), 0.9%. In addition, the “solubility in water at the 0.1% target concentration” value in series [3] is recorded as “soluble”. Also, in series [3], the “stability / behaviour in water” value is on record as “stable”. Also, the Solubility was >50 mg/mL in series [4] (Water, over 24 hours at 25° C.); >50 mg/mL in series [4] (pH 1, over 24 hours at 25° C.); >50 mg/mL in series [4] (pH 6.8, over 24 hours at 25° C.).

The values are drawn from US9333234B2, “Combination of somatostatin-analogs with 11beta-hydroxylase inhibitors” (Novartis AG, priority 2012, dated 2016).
